The term IC50 denotes the point on the concentration scale where inhibition reaches its midpoint.

In one test the target is EGFR WT (Homo sapiens, UniProt P00533). The experiment in a line: TR-FRET inhibition of kinase activity of wild type EGFR. The test is classed as biochemical. The source says: Determination of the Inhibitory Effect of the Compound of the Present Invention on the Kinase Activity of Wild Type EGFR
Experimental objective: The objective of this test example is to determine the inhibitory effect of the compound on the kinase activity of wild type EGFR.
(§1) Experimental process: The experiment applied the TR-FRET (time-resolved fluorescence resonance energy transfer) method to study the inhibitory effect of the compound on the kinase activity of wild type EGFR. The experiment was carried out in a 384-well plate. Experimental buffer (50 mM HEPES, 1 mM EGTA, 10 mM MgCl2, 2 mM DTT, 0.01% Tween-20) was formulated. The compound was diluted in gradient to different concentrations with the experimental buffer. 2 μL of the solution was added to each well of the 384-well plate. 4 μL of diluted EGFR kinase solution (0.001-0.5 nM) was added, and the plate was incubated at room temperature for 10 minutes. 4 μL of ULight-poly GT/ATP mixed solution was added, and the plate was incubated at room temperature for 30 to 60 minutes. 5 μL of EDTA stop solution and 5 μL of Eu-labeled antibody detection solution were added, and the plate was incubated at room temperature for 1 hour.
(§2) Experimental Data Processing Method:
(§3) The concentration and inhibition rate were fitted to a nonlinear regression curve by Graphpad Prism software to obtain the IC50 value.
In general terms: TR-FRET usually uses a lanthanide donor and a delayed reading to cut background.

The next test has as its system A431 cell line. The experiment in a line: Proliferation of A431 cell line (CellTiter-Glo). It is filed as cell-based. Conditions: Homo sapiens, A-431, 72 h. On the procedure:
Test Example 3. Determination of the Inhibitory Effect of the Compound of the Present Invention on the Proliferation of Ba/F3 EGFR Mutant Cell Line and A431 Cell Line
(§4) Experimental objective: The objective of this test example is to determine the inhibitory effect of the compound on the proliferation of Ba/F3 EGFR mutant cell line and A431 cell line
(§5) Experimental instruments: Microplate reader (BioTek Synergy H1), pipette (Eppendorf & Rainin).
(§6) A431 cells were cultured, and harvested after reaching a suitable density. The cells were adjusted to an appropriate cell concentration with the complete medium. The cell suspension were spread on a 96-well plate (90 μL per well), and the plate was placed in a 37° C., 5% CO2 incubator overnight to let the cells adhere to the wall. Solutions of the compound at different concentrations were formulated with DMSO and culture medium. Solvent control was set. The solution of the compound was added to the 96-well plate (10 L per well), and the plate was incubated in the 37° C., 5% CO2 incubator for 72 h. CellTiter-Glo solution was added and mixed well by shaking, and the plate was incubated in the dark for 10 minutes. The values were measured by BioTek Synergy H1 microplate reader.
as §2
(§7) The inhibition rate was calculated using the […] signal value. The concentration and inhibition rate were fitted to a nonlinear regression curve by Graphpad Prism software to obtain the IC50 value.

In test [1] the target is Ba/F3 EGFR-D770-N771ins_SVD (Homo sapiens, UniProt P00533, DUP768-770, cells depend on it). Briefly: Proliferation of Ba/F3 EGFR mutant cell line (CellTiter-Glo). The test is classed as cell-based, mouse. Conditions: 72 h to 144 h, read-out: Ba/F3 EGFR-D770-N771ins_SVD IC50. On the procedure:
Determination of the Inhibitory Effect of the Compound of the Present Invention on the Proliferation of Ba/F3 EGFR Mutant Cell Line and A431 Cell Line
as §4, §5
as §6, with “Ba/F3 EGFR mutant” for “A431”, “The solution of the compound was added to the 96-well plate (10 L per well), and the plate was incubated in the 37° C., 5% CO2 incubator for 72 h.” left out
as §2, §7
(In general: In ATP-based viability assays light output follows the ATP content of the culture.)

In another test the target is EGFR D770_N771insNPG (Homo sapiens, UniProt P00533, INS770NPG). Briefly: TR-FRET inhibition of kinase activity of EGFR exon 20 insertion mutation. The test is classed as biochemical.
Description: Determination of the Inhibitory Effect of the Compound of the Present Invention on the Kinase Activity of EGFR Exon 20 Insertion Mutation
Experimental objective: The objective of this test example is to determine the inhibitory effect of the compound on the kinase activity of EGFR exon 20 insertion mutation.
as §1, with “of EGFR exon 20 insertion mutation.” for “of wild type EGFR.”, “buffer. 2.5” for “buffer. 2”, “plate. 2.5” for “plate. 4”, “minutes. 5” for “minutes. 4”
as §2, §3

Sequence of EGFR D770_N771insNPG (P00533 with tags, fused parts or gaps INS770NPG limits assumed): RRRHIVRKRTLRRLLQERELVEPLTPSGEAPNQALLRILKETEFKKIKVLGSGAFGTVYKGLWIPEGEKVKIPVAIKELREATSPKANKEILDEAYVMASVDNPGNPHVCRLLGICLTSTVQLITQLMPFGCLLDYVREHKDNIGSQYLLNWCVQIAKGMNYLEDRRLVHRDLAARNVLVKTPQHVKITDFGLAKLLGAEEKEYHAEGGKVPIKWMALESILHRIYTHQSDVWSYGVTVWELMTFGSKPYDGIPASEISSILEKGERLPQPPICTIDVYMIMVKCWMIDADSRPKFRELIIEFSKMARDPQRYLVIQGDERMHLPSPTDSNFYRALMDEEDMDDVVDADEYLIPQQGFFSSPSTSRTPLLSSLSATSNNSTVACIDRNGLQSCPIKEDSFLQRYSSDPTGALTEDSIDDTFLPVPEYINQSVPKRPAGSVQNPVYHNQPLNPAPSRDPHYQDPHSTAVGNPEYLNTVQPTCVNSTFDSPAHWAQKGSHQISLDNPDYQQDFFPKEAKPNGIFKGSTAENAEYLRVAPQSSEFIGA
Sequence of Ba/F3 EGFR-D770-N771ins_SVD (P00533 with tags, fused parts or gaps DUP768-770): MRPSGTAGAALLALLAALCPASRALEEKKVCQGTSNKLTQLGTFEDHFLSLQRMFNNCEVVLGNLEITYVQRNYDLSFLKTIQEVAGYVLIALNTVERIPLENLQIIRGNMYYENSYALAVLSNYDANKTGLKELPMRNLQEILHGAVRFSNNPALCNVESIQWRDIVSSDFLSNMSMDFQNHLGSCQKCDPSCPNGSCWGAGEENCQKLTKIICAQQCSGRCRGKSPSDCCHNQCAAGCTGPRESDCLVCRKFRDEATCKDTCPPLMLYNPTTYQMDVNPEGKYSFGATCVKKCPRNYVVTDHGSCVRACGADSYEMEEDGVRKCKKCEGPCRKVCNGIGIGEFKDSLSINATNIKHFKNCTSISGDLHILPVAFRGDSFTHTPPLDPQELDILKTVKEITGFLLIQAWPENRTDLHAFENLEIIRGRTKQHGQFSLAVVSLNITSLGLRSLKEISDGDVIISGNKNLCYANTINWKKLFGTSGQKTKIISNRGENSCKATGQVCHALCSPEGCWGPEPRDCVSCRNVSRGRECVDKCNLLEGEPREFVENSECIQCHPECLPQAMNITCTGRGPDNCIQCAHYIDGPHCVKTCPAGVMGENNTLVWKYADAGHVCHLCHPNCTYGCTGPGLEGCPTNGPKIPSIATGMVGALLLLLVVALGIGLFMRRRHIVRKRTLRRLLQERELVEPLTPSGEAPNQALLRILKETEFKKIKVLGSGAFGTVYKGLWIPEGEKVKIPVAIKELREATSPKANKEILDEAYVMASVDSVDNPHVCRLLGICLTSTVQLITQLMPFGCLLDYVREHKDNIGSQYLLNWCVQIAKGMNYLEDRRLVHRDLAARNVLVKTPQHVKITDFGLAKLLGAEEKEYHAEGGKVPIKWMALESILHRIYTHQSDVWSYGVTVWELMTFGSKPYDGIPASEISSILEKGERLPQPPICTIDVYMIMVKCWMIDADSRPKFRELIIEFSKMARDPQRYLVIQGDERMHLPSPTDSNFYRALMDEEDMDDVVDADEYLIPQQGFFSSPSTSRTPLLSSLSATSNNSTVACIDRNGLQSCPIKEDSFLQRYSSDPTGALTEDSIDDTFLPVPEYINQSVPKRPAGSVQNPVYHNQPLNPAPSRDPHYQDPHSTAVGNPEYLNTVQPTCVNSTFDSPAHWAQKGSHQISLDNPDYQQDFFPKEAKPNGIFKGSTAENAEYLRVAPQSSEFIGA
Sequence of EGFR WT (P00533 25-1210): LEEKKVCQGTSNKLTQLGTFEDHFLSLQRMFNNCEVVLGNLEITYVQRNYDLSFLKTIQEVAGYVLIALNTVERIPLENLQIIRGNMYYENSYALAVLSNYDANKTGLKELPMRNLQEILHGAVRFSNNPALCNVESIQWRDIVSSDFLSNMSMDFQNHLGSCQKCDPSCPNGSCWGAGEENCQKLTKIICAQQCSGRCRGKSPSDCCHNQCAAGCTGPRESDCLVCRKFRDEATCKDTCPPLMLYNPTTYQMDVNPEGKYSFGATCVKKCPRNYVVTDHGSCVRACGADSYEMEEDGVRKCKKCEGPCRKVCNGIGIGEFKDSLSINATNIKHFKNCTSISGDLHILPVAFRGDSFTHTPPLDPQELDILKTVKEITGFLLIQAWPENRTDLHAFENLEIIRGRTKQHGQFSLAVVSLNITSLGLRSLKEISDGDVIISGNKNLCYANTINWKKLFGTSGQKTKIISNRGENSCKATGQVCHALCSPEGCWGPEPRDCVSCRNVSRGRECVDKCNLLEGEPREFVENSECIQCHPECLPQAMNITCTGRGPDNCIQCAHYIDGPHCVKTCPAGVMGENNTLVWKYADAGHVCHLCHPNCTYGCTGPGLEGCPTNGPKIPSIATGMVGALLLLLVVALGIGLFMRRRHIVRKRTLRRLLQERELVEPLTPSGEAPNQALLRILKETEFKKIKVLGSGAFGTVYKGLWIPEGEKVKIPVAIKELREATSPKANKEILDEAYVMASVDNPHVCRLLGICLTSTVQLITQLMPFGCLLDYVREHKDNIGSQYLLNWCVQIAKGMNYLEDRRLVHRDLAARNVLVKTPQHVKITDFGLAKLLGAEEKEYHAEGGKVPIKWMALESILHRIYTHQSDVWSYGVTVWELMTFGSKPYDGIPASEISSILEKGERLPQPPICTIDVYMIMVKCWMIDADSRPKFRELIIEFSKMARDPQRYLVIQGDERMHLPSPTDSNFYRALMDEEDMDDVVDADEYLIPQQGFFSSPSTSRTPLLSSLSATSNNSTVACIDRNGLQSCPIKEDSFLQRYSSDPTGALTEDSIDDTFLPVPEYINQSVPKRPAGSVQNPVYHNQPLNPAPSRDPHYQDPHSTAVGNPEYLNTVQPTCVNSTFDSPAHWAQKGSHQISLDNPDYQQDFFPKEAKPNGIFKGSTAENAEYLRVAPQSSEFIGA

Take `C=CC(=O)Nc1cc(Nc2ncc(C(=O)OC)c(-c3cn(C)c4ccccc34)n2)c(OC)cc1N1C[C@@H]2C[C@H]1CN2C` [Example 25, Methyl 2-((5-acrylamido-2-methoxy-4-((1S,4S)-5-methyl-2,5-diazabicyclo[2.2.1]heptan-2-yl)phenyl)amino)-4-(1-methyl-1H-indol-3-yl)pyrimidine-5-carboxylate]: at EGFR WT, the IC50 turned out to be 89.8 nM.
As for `C=CC(=O)Nc1cc(Nc2ncc(C(F)(F)F)c(-c3cn(C4CC4)c4ccccc34)n2)c(OC)cc1N1C[C@H]2CN(C)C[C@H]2C1` [Example 27, N-(5-((4-(1-Cyclopropyl-1H-indol-3-yl)-5-(trifluoromethyl)pyrimidin-2-yl)amino)-4-methoxy-2-((3aR,6aS)-5-methylhexahydropyrrolo[3,4-c]pyrrol-2(1H)-yl)phenyl)acrylamide], the IC50 on EGFR WT was found to be 121 nM.
For `C=CC(=O)Nc1cc(Nc2ncc(-c3ncco3)c(-c3cn(C4CC4)c4ccccc34)n2)c(OC)cc1N(C)CC1CCCN1C` (centres unmarked) [Example 38, N-(5-((4-(1-Cyclopropyl-1H-indol-3-yl)-5-(oxazol-2-yl)pyrimidin-2-yl)amino)-4-methoxy-2-(methyl((1-methylpyrrolidin-2-yl)methyl)amino)phenyl)acrylamide], the IC50 in the test with A431 cell line stood at 146 nM; at EGFR D770_N771insNPG, 0.45 nM. For the same molecule, in test [1], the GI50 was determined as 34.6 nM.
For `C=CC(=O)Nc1cc(Nc2ncc(-c3nccs3)c(-c3cn(C4CC4)c4ccccc34)n2)c(OC)cc1N1C[C@H]2CN(C)C[C@H]2C1` [Example 45, N-(5-((4-(1-Cyclopropyl-1H-indol-3-yl)-5-(thiazol-2-yl)pyrimidin-2-yl)amino)-4-methoxy-2-((3aR,6aS)-5-methylhexahydropyrrolo[3,4-c]pyrrol-2(1H)-yl)phenyl)acrylamide] the same measures were 210 nM, 1 nM and 53.4 nM.
In the same order, the values of `C=CC(=O)Nc1cc(Nc2ncc(-c3ncco3)c(-c3cn(C4CC4)c4ccccc34)n2)c(OC)cc1N1CC(N(C)C)C1` [Example 52, N-(5-((4-(1-Cyclopropyl-1H-indol-3-yl)-5-(oxazol-2-yl)pyrimidin-2-yl)amino)-2-(3-(dimethylamino)azetidin-1-yl)-4-methoxyphenyl)acrylamide] are 306 nM, 0.79 nM and 34.9 nM.
As for `C=CC(=O)Nc1cc(Nc2ncc(-c3ncco3)c(-c3cn(C4CC4)c4ccccc34)n2)c(OC)cc1N1CC(N2CCCC2)C1` [Example 53, N-(5-((4-(1-Cyclopropyl-1H-indol-3-yl)-5-(oxazol-2-yl)pyrimidin-2-yl)amino)-4-methoxy-2-(3-(pyrrolidin-1-yl)azetidin-1-yl)phenyl)acrylamide], the IC50 with A431 cell line was determined as 182 nM; on EGFR D770_N771insNPG it was 0.5 nM. In test [1], the GI50 worked out at 21.7 nM.
In the case of `C=CC(=O)Nc1cc(Nc2ncc(-c3ncco3)c(-c3cn(C4CC4)c4ccccc34)n2)c(OC)cc1N1CC[C@@H](N(C)C)C1` [Example 57, (R)—N-(5-((4-(1-Cyclopropyl-1H-indol-3-yl)-5-(oxazol-2-yl)pyrimidin-2-yl)amino)-2-(3-(dimethylamino)pyrrolidin-1-yl)-4-methoxyphenyl)acrylamide], the IC50 turned out to be 113 nM in the test on A431 cell line and 0.82 nM at EGFR D770_N771insNPG. Moreover, in test [1], the GI50 was 28.1 nM.
Regarding `C=CC(=O)Nc1cc(Nc2ncc(-c3cccnc3)c(-c3cn(C4CC4)c4ccccc34)n2)c(OC)cc1N1C[C@H]2CN(C)C[C@H]2C1` [Example 64, N-(5-((4-(1-Cyclopropyl-1H-indol-3-yl)-5-(pyridin-3-yl)pyrimidin-2-yl)amino)-4-methoxy-2-((3aR,6aS)-5-methylhexahydropyrrolo[3,4-c]pyrrol-2(1H)-yl)phenyl)acrylamide], the IC50 in the test on A431 cell line was 28.9 nM; against EGFR D770_N771insNPG it was 0.39 nM. The GI50 in test [1] was 17.4 nM.
For `C=CC(=O)Nc1cc(Nc2ncc(C#N)c(-c3cn(C4CC4)c4ccccc34)n2)c(OC)cc1N1CC[C@@H](N(C)C)C1` [Example 78, (R)—N-(5-((5-Cyano-4-(1-cyclopropyl-1H-indol-3-yl)pyrimidin-2-yl)amino)-2-(3-(dimethylamino)pyrrolidin-1-yl)-4-methoxyphenyl)acrylamide] the same measures were 258 nM, 0.5 nM and 48.2 nM.
In the same order, the values of `C=CC(=O)Nc1cc(Nc2ncc(C#N)c(-c3cn(C4CC4)c4ccccc34)n2)c(OC)cc1N1C[C@H]2CCN(C)[C@H]2C1` [Example 109, N-(5-((5-Cyano-4-(1-cyclopropyl-1H-indol-3-yl)pyrimidin-2-yl)amino)-4-methoxy-2-((3aR,6aR)-1-methylhexahydropyrrolo[3,4-b]pyrrol-5(1H)-yl)phenyl)acrylamide] are 168 nM, 0.78 nM and 49.1 nM.
For `C=CC(=O)Nc1cc(Nc2ncc(C#N)c(-c3cn(C4COC4)c4ccccc34)n2)c(OC)cc1N(C)CCN(C)C` [Example 111, N-(5-((5-cyano-4-(1-(oxetan-3-yl)-1H-indol-3-yl)pyrimidin-2-yl)amino)-2-((2-(dimethylamino)ethyl)(methyl)amino)-4-methoxyphenyl)acrylamide] the same measures were 34.1 nM, 0.18 nM and 21.2 nM.
With `C=CC(=O)Nc1cc(Nc2ncc(C#N)c(-c3cn(C4CC4)c4ccc(OC)cc34)n2)c(OC)cc1N(C)CCN(C)C` [Example 118, N-(5-((5-Cyano-4-(1-cyclopropyl-5-methoxy-1H-indol-3-yl)pyrimidin-2-yl)amino)-2-((2-(dimethylamino)ethyl)(methyl)amino)-4-methoxyphenyl)acrylamide], the IC50 with A431 cell line is 201 nM; against EGFR D770_N771insNPG it was 0.55 nM. The GI50 in test [1] was found to be 45.1 nM.
For `C=CC(=O)Nc1cc(Nc2ncc(C#N)c(-c3cn(C4CC4)c4cc(OC)c(F)cc34)n2)c(OC)cc1N(C)CCN(C)C` [Example 127, N-(5-((5-Cyano-4-(1-cyclopropyl-5-fluoro-6-methoxy-1H-indol-3-yl)pyrimidin-2-yl)amino)-2-((2-(dimethylamino)ethyl)(methyl)amino)-4-methoxyphenyl)acrylamide] the same measures were 46.6 nM, 0.18 nM and 13.4 nM.
For `C=CC(=O)Nc1cc(Nc2ncc(C#N)c(-c3cn(C4COC4)c4cc(OC)ccc34)n2)c(OC)cc1N(C)CCN(C)C` [Example 137, N-(5-((5-Cyano-4-(6-methoxy-1-(oxetan-3-yl)-1H-indol-3-yl)pyrimidin-2-yl)amino)-2-((2-(dimethylamino)ethyl)(methyl)amino)-4-methoxyphenyl)acrylamide] the same measures were 18.2 nM, 0.16 nM and 9.78 nM.
